# Measurements from patent US20070135383A1, “Phospholipase inhibitors, including multi-valent phospholipase inhibitors, and use thereof, including as lumen-localized phospholipase inhibitors” (priority 2005, published 2007).
# Read-outs that look alike come from different tables or passages of the source.
# Tests used:
# [1] = target: T1, human group 1B PLA2 (hps PLA2) (Homo sapiens, UniProt P04054); experiment: Fluorimetric PPyrPM assay for group 1B PLA2 inhibition (Example 12); type: biochemical
# T1 construct: made in house; host or cells: E. coli
# [2] = target: T2, mouse group 1B PLA2 (mps PLA2) (Mus musculus, UniProt Q9Z0Y2); experiment: as above; type: biochemical
# T2 construct: made in house; host or cells: E. coli
# [3] = target: T3, porcine group 1B PLA2 (pps PLA2) (Sus scrofa, UniProt P00592); experiment: as above; type: biochemical
# T3 construct: purchased
# Procedure, shortened: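 Porcine group 1B PLA2 hydrolysis of 4.2 uM PPyrPM vesicle solution (pre-mixing concentration) in 50 mM Tris-HCl pH 8.0, 50 mM KCl, 1 mM CaCl2 with BSA; inhibitors in 8-point threefold series from 15 uM. After 3 min at 37 °C, fluorescence read at ex 342/em 395 nm; duplicate IC50 by four-parameter fit.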
# [4] = Mouse pharmacokinetic study, IV vs oral (Example 18); type: in vivo, male CD-1 mice; details: PO 30 mg/kg vs IV 3 mg/kg, serum by LC/MS/MS; for bioavailability: male, CD-1, mouse
# Procedure: The plasma exposure of male CD-1 mice to indole and indole-related test articles (TAs) following intravenous (IV, 3 mg/kg) and oral (PO, 30 mg/kg) routes of administration was measured. This model was used to investigate the bioavailability of indole and indole-related TAs in mouse. Mice were selected for the study since they are an accepted species frequently used in pre-clinical evaluation of drugs intended for human use.
# Male CD-1 mice (7-8 weeks old) were obtained from Charles River Laboratories (Wilmington, Mass.). Two groups (N=18 and 27) of male CD-1 mice were used for the study. Upon arrival, the animals were placed on Rodent Diet 5001 (Purina Mills, Inc., St. Louis, Mo.).
# On study day (−1), indole and indole-related TAs were formulated for oral or IV dosing by mixing the formulation components with test article in the proportions described in Table 10.1. The components were mixed by vortexing and sonicating in a warming bath for 60 minutes. Animals were fasted overnight prior to start of the study. On study day (1), formulations were sonicated for an hour to make sure that no visible particles were present prior to dosing, or if present were evenly distributed in suspension. Formulated test article were stirred continuously during dosing.
# All animals were weighed on study day (1) and the body weights were recorded and used for dose calculation. The animals were dosed by either PO or IV route as outlined in Table 10.2. Blood samples (0.5 mL) were collected at specified time intervals into labeled, yellow-capped Microtainer tubes. The tubes were centrifuged (8,000×g, 10 min). Serum was then pipetted off into labeled Eppendorf® tubes and frozen at −80° C. Clinical observations were recorded as needed.
# Analysis of serum samples was performed by LC/MS/MS (Waters Quattro Premier, Milford, Mass.). Areas under curves (AUC) were calculated using Graphpad Prism Version 4. Bioavailability was calculated using the following equation: (Bioavailability)=(AUC0-t,oral/AUC0-t,iv)×(Doseiv/Doseoral)×100
# where AUC0-t=total area under curve at the last measurable time point
# PL A2 = details: range given in words, art-known PL A2 inhibitors; cited from earlier work
# [5] = test system: C57BL/6J mouse model of obesity; experiment: Mouse diet-induced obesity model (Example 19); type: in vivo; details: low fat control diet D12328, 25 or 90 mg/kg/d
# Text: The high-fat diet-fed C57BL/6J mouse model of human diabetes, originally introduced by Surwit and colleagues (Surwit, R S, et al. (1988) “Diet-induced type II diabetes in C57BL/6J mice”, Diabetes 37: 1163-1167) is a widely accepted, clinically relevant, polygenic model that induces obesity, dyslipidemia, glucose- and insulin-resistance as early as 3 weeks after commencing the high fat diet (Winzell, M S and Ahren, B (2004) “The high-fat diet-fed mouse: a model for studying mechanisms and treatment of impaired glucose tolerance and type 2 diabetes”, Diabetes 53 Suppl 3: S215-219). This model was used to investigate the effects of indole and indole-related Test Articles. Avandia (rosiglitazone) was used as a control Test Article. […]
# In these studies and the accompanying figures, Diet D12328 from Research Diets is referred to as the “Low Fat” or Control diet/chow, while Diet D12331 from Research Diets is referred to as the “High Fat” diet. […] The Test Article content was calculated such that ad libitum consumption by the animals would deliver doses (in mg of Test Article per kg animal weight per day) approximating those listed in Table 11.
# Animals were maintained on the diets for up to eleven weeks. Body weights were recorded weekly. […] The serum was analyzed for glucose, total cholesterol, triglycerides (TG) and lysophospholipid (LPC) content. […]
# [6] = test system: LDL receptor knockout mice; experiment: LDL receptor knockout mouse model (Example 20); type: in vivo; details: low fat control diet D12328, 25 or 90 mg/kg/d
# Text: Mice lack an enzyme found in humans, cholesterol ester transfer protein (CETP), which is responsible for the transfer of cholesterol from high density lipoproteins (HDL) to the ApoB-containing lipoproteins such as very low density lipoproteins (VLDL) and low density lipoproteins (LDL). Consequently, LDL cholesterol levels in wild-type mice are very low compared to those seen in humans. The low density lipoprotein receptor (LDLR) is involved with clearing LDL and lipoprotein remnants containing apoE. If the LDLR is inactivated, LDL cholesterol levels rise to levels seen in humans. On a normal rodent diet, the LDL cholesterol levels in LDLR deficient mice are elevated compared to wild-type mice. […]
# In these studies and the accompanying figures, Diet D12328 from Research Diets is referred to as the “Low Fat” or Control diet, while Diet D12079B from Research Diets is referred to as the “Western” diet. […] The Test Article content was calculated such that ad libitum consumption by the animals would deliver doses (in mg of Test Article per Kg animal weight per day) approximating those listed in Table 12.
# Animals were maintained on the diets for eight weeks. Body weights were recorded weekly. […] The serum was analyzed for total cholesterol, LDL cholesterol, HDL cholesterol, triglycerides (TG), free fatty acid (FFA) and lysophospholipid (LPC) content. […]
# mice = experiment: Toxicology, daily oral gavage for 5 consecutive days (Example 23); type: in vivo
# Text: The purpose of this study was to evaluate the toxicity of indole and indole-related Test Articles when administered daily via oral gavage to mice for 5 consecutive days.
# Assessment of toxicity was based on mortality; clinical signs, body weight, food consumption, clinical pathology, and macroscopic pathology data.
# [7] = human pancreas secreted PLA2, read-out: ILYPSA IC50 hps PLA2
# [8] = mouse pancreas secreted PLA2, read-out: ILYPSA IC50 mps PLA2
# [9] = porcine pancreas secreted PLA2, read-out: ILYPSA IC50 pps PLA2
# T3 sequence (P00592 23-146): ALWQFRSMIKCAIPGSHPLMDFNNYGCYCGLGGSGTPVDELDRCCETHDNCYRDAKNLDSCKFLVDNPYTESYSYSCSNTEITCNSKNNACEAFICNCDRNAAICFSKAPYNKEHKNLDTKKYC
# T2 sequence (Q9Z0Y2 23-146): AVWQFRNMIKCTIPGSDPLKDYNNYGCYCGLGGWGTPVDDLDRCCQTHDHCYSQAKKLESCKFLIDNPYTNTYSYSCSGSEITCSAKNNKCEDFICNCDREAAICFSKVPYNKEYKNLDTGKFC
# T1 sequence (P04054 23-148): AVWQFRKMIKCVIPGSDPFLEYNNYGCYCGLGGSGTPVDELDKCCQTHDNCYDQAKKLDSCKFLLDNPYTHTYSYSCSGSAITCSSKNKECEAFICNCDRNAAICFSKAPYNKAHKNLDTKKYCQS
Structure (SMILES),"IC50 [1, 7] [nM]","IC50 [2, 8] [nM]","IC50 [3, 9] [nM]",IC50 (PL A2),bioavailability [4] [%],also measured
"Cc1c(C(=O)C(N)=O)c2c(OCC(=O)O)cccc2n1CCCCCCCCCCCCOc1ccc(C(C)(C)c2ccc(OCCCCCCCCCCCCn3c(C)c(C(=O)C(N)=O)c4c(OCC(=O)O)cccc43)cc2)cc1 [ILY-V-30, 2,2′-(1,1′-(12,12′-(4,4′-(propane-2,2-diyl)bis(4,1-phenylene))bis(oxy)bis(dodecane-12,1-diyl))bis(3-(2-amino-2-oxoacetyl)-2-methyl-1H-indole-4,1-diyl))bis(oxy)diacetic acid]",430,190,< 20,–,–,bioavailability ([4]; in vivo): 0%
"Cc1c(C(=O)C(N)=O)c2c(OCC(=O)O)cccc2n1CCCCCCCCCCCCOc1ccccc1-c1ccccc1OCCCCCCCCCCCCn1c(C)c(C(=O)C(N)=O)c2c(OCC(=O)O)cccc21 [ILY-V-37, [3-Aminooxalyl-1-(12-{2′-[12-(3-aminooxalyl-4-carboxymethoxy-2-methyl-indol-1-yl)-dodecyloxy]-biphenyl-2-yloxy}-dodecyl)-2-methyl-1H-indol-4-yloxy]-acetic acid]",270,230,200,–,–,bioavailability ([4]; in vivo): 0.15%
CCN(CC)CCN(Cc1ccc(-c2ccc(C(F)(F)F)cc2)cc1)C(=O)Cn1cc(Cc2ccn(C)n2)c(=O)nc1SCc1ccc(F)cc1 [GB-480848],–,–,–,nM or subnM range,–,–
"Cc1c(C(=O)C(N)=O)c2c(OCC(=O)O)cccc2n1CCCCCCCCCCCCSCCCCCCCCSCCCCCCCCCCCCn1c(C)c(C(=O)C(N)=O)c2c(OCC(=O)O)cccc21 [ILY-V-26, 2,2′-(1,1′-(12,12′-(Octane-1,8-diylbis(sulfanediyl))bis(dodecane-12,1-diyl))bis(3-(2-amino-2-oxoacetyl)-2-methyl-1H-indole-4,1-diyl))bis(oxy)diacetic acid]",240,340,260,–,0,–
"Cc1c(C(=O)C(N)=O)c2c(OCC(=O)O)nccc2n1Cc1ccccc1 [ILY-II-1, (3-Aminooxalyl-1-benzyl-2-methyl-1H-pyrrolo[3,2-c]pyridin-4-yloxy)-acetic acid]",–,–,–,–,11,IC50 [1]: 1150 nM; IC50 [2]: 230 nM; IC50 [3]: 70 nM
"Cc1c(C(=O)C(N)=O)c2c(OCC(=O)O)cccc2n1CCCCCCCCCCCCOc1cc(OCCCCCCCCCCCCn2c(C)c(C(=O)C(N)=O)c3c(OCC(=O)O)cccc32)cc(OCCCCCCCCCCCCn2c(C)c(C(=O)C(N)=O)c3c(OCC(=O)O)cccc32)c1 [ILY-V-32, 2,2,′,2″-(1,1′,1″-(12,12′,12″-(benzene-1,3,5-triyltris(oxy))tris(dodecane-12,1-diyl))tris(3-(2-amino-2-oxoacetyl)-2-methyl-1H-indole-4,1-diyl))tris(oxy)triacetic acid]",60,130,90,–,–,Bioavailability (%) [4]: 0.00%
CCc1c(CC(N)=O)c2cc(OCCCP(=O)(O)O)ccc2n1Cc1ccccc1 [LY-311727],–,–,–,sub μM range,–,–
C=CCN(CC(=O)OCC)C(=O)COc1ccc(C(=O)OCc2ccccc2)cc1,–,–,–,μM range,–,–
"Cc1c(C(=O)C(N)=O)c2c(OCC(=O)NS(C)(=O)=O)nccc2n1Cc1ccccc1-c1ccccc1 [ILY-II-14, 2-(3-(2-amino-2-oxoacetyl)-1-(biphenyl-2-ylmethyl)-2-methyl-1H-pyrrolo[3,2-c]pyridin-4-yloxy)-N-(methylsulfonyl)acetamide]",–,–,–,–,14.7,IC50 [1]: 690 nM; IC50 [2]: 590 nM; IC50 [3]: 40 nM
Cc1c(C(=O)C(N)=O)c2c(OCC(=O)O)cccc2n1CCCCCCCCCCCCOc1ccc(C(C)(C)c2ccc(OCCCCCCCCCCCCn3c(C)c(C(=O)C(N)=O)c4c(OCC(=O)O)cccc43)cc2)cc1 [ILY4011],–,–,–,–,–,"effect of test article in animals fed low fat control diet [5]: No or little effect; effect of test article in animals fed low fat control diet [6]: No or little effect; clinical pathology data, treated groups vs vehicle control group (mice): no differences"
